Test results published in US20100298141A1, “SUBSTITUTED PYRIDINE N-OXIDE HERBICIDES” (E. I. DU PONT DE NEMOURS AND COMPANY, priority 2007, published 2010).

Experiments:
mustard = experiment: Test F preemergence test; assay type: in vivo, Brassica nigra; details: scale 0 to 100
Method in brief: (§1)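 Preemergence application to planted seeds, or postemergence to sugarcane plants; compound in non-phytotoxic solvent mix plus surfactant. Greenhouse, 14-21 days. Visual rating vs. controls.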

green foxtail = experiment: Test F preemergence test; assay type: in vivo, Setaria viridis; details: scale 0 to 100
Method in brief: as §1

barnyardgrass [1] = experiment: Test F preemergence test; assay type: in vivo, Echinochloa crus-galli
Method in brief: as §1

cocklebur = experiment: Test C pre-/postemergence test; assay type: in vivo, Xanthium strumarium
Method in brief: (§2)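 Test chemicals were formulated with surfactant in a non-phytotoxic solvent and sprayed both on freshly planted seeds (preemergence) and on 1- to 4-leaf plants of 2–18 cm (postemergence). Flooded-paddy pots received compound directly into 3 cm of standing water, maintained for the test.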

kochia = experiment: Test C pre-/postemergence test; assay type: in vivo, Kochia scoparia
Method in brief: as §2

common mallow = experiment: Test F preemergence test; assay type: in vivo, Malva sylvestris; details: scale 0 to 100
Method in brief: as §1

Virginia dayflower = experiment: Test F preemergence test; assay type: in vivo, Commelina virginica; details: scale 0 to 100
Method in brief: as §1

dallisgrass = experiment: Test F preemergence test; assay type: in vivo, Paspalum dilatatum; details: scale 0 to 100
Method in brief: as §1

itchgrass = experiment: Test F preemergence test; assay type: in vivo, Rottboellia cochinchinensis; details: scale 0 to 100
Method in brief: as §1

velvetleaf = experiment: Test C pre-/postemergence test; assay type: in vivo, Abutilon theophrasti
Method in brief: as §2

broadleaf signalgrass = experiment: Test F preemergence test; assay type: in vivo, Brachiaria platyphylla; details: scale 0 to 100
Method in brief: as §1

barnyardgrass [2] = experiment: Test A pre-/postemergence greenhouse test; assay type: in vivo, Echinochloa crus-galli; details: for Barnyardgrass plant response rating: 0 to 100 scale; for Plant response rating, Barnyardgrass: 0 to 100 scale where 0 is no effect and 100 is complete control
Method in brief: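 Each test compound, dissolved in a non-phytotoxic solvent mixture with surfactant, was sprayed directly onto seeded soil (loam/sand blend) and, at the same moment, onto seedlings carrying one to two leaves. Around ten greenhouse days later, plants were rated visually for injury relative to untreated controls.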

annual bluegrass = experiment: Test F preemergence test; assay type: in vivo, Poa annua; details: scale 0 to 100
Method in brief: as §1

field bindweed = experiment: Test F preemergence test; assay type: in vivo, Convolvulus arvensis; details: scale 0 to 100
Method in brief: as §1

[3] = 62 g ai/ha, Preemergence, scale 0 to 100
[4] = Preemergence, 31 g ai/ha, scale 0 to 100
[5] = 31 g ai/ha, Preemergence, scale 0 to 100
[6] = 62 g ai/ha, preemergence, scale 0 (no effect) to 100 (complete control)
[7] = Postemergence, 62 g ai/ha, scale 0 to 100, 0 no effect, 100 complete control
[8] = Postemergence, 125 g ai/ha, scale 0 to 100, 0 no effect, 100 complete control
[9] = Postemergence, 250 g ai/ha, scale 0 to 100, 0 no effect, 100 complete control
[10] = preemergence, 125 g ai/ha, scale 0 (no effect) to 100 (complete control)
[11] = Postemergence, 500 g ai/ha, 0 is no effect, 100 is complete control
[12] = Preemergence, 125 g ai/ha, 0 no effect, 100 complete control
[13] = 125 g ai/ha, preemergence, scale 0 (no effect) to 100 (complete control)
[14] = Preemergence, 31 g ai/ha, scale 0 to 100 (0 no effect, 100 complete control)
[15] = preemergence, 250 g ai/ha, scale 0 (no effect) to 100 (complete control)

Cc1cc[n+]([O-])c(S(=O)(=O)Cc2c(C(F)(F)F)nn(C)c2OC(F)F)c1 [Compound 2]
35: Mallow plant response rating (common mallow; 62 g ai/ha, Preemergence)
80: Black Mustard plant response rating (mustard; 62 g ai/ha, Preemergence) | Plant response rating, Black Mustard (mustard; Preemergence, 31 g ai/ha) | Foxtail, Green plant response rating (green foxtail; 62 g ai/ha, Preemergence) | Plant response rating, Barnyardgrass (barnyardgrass [1]; [4]) | Barnyardgrass plant response rating (barnyardgrass [2]; [11])
10: Plant response rating, Barnyardgrass (barnyardgrass [1]; Preemergence, 16 g ai/ha, scale 0 to 100) | Plant response rating, Cocklebur (cocklebur; [9]) | Plant response rating, Dallisgrass (dallisgrass; Preemergence, 31 g ai/ha)
70: Cocklebur plant response rating (cocklebur; [10]) | Itchgrass plant response rating (itchgrass; 62 g ai/ha, Preemergence) | Barnyardgrass plant response rating (barnyardgrass [2]; Postemergence, 125 g ai/ha, 0 is no effect, 100 is complete control)
90: Barnyardgrass plant response rating (barnyardgrass [2]; [12])
20: Plant response rating, Foxtail, Green (green foxtail; Preemergence, 16 g ai/ha) | Plant response rating, Itchgrass (itchgrass; Preemergence, 16 g ai/ha)
100: Barnyardgrass plant response rating (barnyardgrass [1]; [3]) | Plant response rating (0 to 100), Cocklebur (cocklebur; Preemergence, 250 g ai/ha) | Kochia plant response rating (kochia; [5]) | Kochia plant response rating (kochia; [6]) | Plant response rating (0 to 100), Kochia (kochia; Preemergence, 250 g ai/ha) | Kochia plant response rating (kochia; [10]) | Dayflower plant response rating (Virginia dayflower; 62 g ai/ha, Preemergence) | Plant response rating, Dayflower (Virginia dayflower; Preemergence, 31 g ai/ha) | Plant response rating, Barnyardgrass (barnyardgrass [2]; Preemergence, 500 g ai/ha)
0: Plant response rating, Black Mustard (mustard; 8 g ai/ha, preemergence) | Plant response rating, Foxtail, Green (green foxtail; 8 g ai/ha, preemergence) | Plant response rating, Barnyardgrass (barnyardgrass [1]; 8 g ai/ha, preemergence, scale 0 to 100) | Cocklebur plant response rating (cocklebur; [5]) | Cocklebur plant response rating (cocklebur; [6]) | Plant response rating (0 to 100), Cocklebur (cocklebur; Postemergence, 31 g ai/ha) | Plant response rating, Cocklebur (cocklebur; [7]) | Plant response rating, Cocklebur (cocklebur; [8]) | Plant response rating (0 to 100), Kochia (kochia; Postemergence, 31 g ai/ha) | Plant response rating, Kochia (kochia; [7]) | Plant response rating, Mallow (common mallow; 8 g ai/ha, preemergence) | Plant response rating, Mallow (common mallow; Preemergence, 16 g ai/ha) | Plant response rating, Mallow (common mallow; Preemergence, 31 g ai/ha) | Plant response rating, Dayflower (Virginia dayflower; 8 g ai/ha, preemergence) | Plant response rating, Dayflower (Virginia dayflower; Preemergence, 16 g ai/ha) | Plant response rating, Dallisgrass (dallisgrass; 8 g ai/ha, preemergence) | Plant response rating, Dallisgrass (dallisgrass; Preemergence, 16 g ai/ha) | Plant response rating, Itchgrass (itchgrass; 8 g ai/ha, preemergence) | Plant response rating (0 to 100), Velvetleaf (velvetleaf; Postemergence, 31 g ai/ha) | Plant response rating (0 to 100), Velvetleaf (velvetleaf; Postemergence, 62 g ai/ha) | Plant response rating, Velvetleaf (velvetleaf; [8]) | Plant response rating, Signalgrass (broadleaf signalgrass; 8 g ai/ha, preemergence) | Plant response rating, Signalgrass (broadleaf signalgrass; 16 g ai/ha, preemergence) | Plant response rating, Signalgrass (broadleaf signalgrass; Preemergence, 31 g ai/ha) | Plant response rating, Bluegrass (annual bluegrass; 8 g ai/ha, preemergence) | Plant response rating, Bluegrass (annual bluegrass; Preemergence, 16 g ai/ha) | Plant response rating, Field Bindweed (field bindweed; 8 g ai/ha, preemergence) | Field Bindweed plant response rating (field bindweed; 62 g ai/ha, Preemergence) | Plant response rating, Field Bindweed (field bindweed; Preemergence, 16 g ai/ha) | Plant response rating, Field Bindweed (field bindweed; Preemergence, 31 g ai/ha)
25: Plant response rating, Black Mustard (mustard; Preemergence, 16 g ai/ha) | Bluegrass plant response rating (annual bluegrass; 62 g ai/ha, Preemergence)
15: Plant response rating, Bluegrass (annual bluegrass; Preemergence, 31 g ai/ha)
65: Plant response rating, Foxtail, Green (green foxtail; Preemergence, 31 g ai/ha) | Dallisgrass plant response rating (dallisgrass; 62 g ai/ha, Preemergence)
5: Plant response rating, Kochia (kochia; [8]) | Plant response rating, Kochia (kochia; [9]) | Plant response rating, Velvetleaf (velvetleaf; [9])
60: Plant response rating, Itchgrass (itchgrass; Preemergence, 31 g ai/ha)
50: Signalgrass plant response rating (broadleaf signalgrass; 62 g ai/ha, Preemergence)

Cn1nc(C(F)(F)F)c(C[S+]([O-])c2ccc(Cl)c[n+]2[O-])c1OCC(F)(F)F (racemic) [Compound 62]
60: Cocklebur plant response rating (cocklebur; [15]) | Plant response rating, Dallisgrass (dallisgrass; Preemergence, 31 g ai/ha)
85: Plant response rating, Kochia (kochia; [14])
40: Plant response rating, Velvetleaf (velvetleaf; [9]) | Plant response rating, Velvetleaf (velvetleaf; [14]) | Plant response rating, Signalgrass (broadleaf signalgrass; 16 g ai/ha, preemergence) | Plant response rating, Signalgrass (broadleaf signalgrass; Preemergence, 31 g ai/ha)
80: Foxtail, Green plant response rating (green foxtail; 62 g ai/ha, Preemergence) | Plant response rating, Mallow (common mallow; Preemergence, 31 g ai/ha) | Plant response rating, Barnyardgrass (barnyardgrass [2]; Postemergence, 125 g ai/ha) | Bluegrass plant response rating (annual bluegrass; 62 g ai/ha, Preemergence)
5: Plant response rating, Velvetleaf (velvetleaf; [8])
10: Plant response rating, Kochia (kochia; [9])
90: Black Mustard plant response rating (mustard; 62 g ai/ha, Preemergence) | Kochia plant response rating (kochia; [3]) | Itchgrass plant response rating (itchgrass; 62 g ai/ha, Preemergence) | Velvetleaf plant response rating (velvetleaf; [3]) | Barnyardgrass plant response rating (barnyardgrass [2]; [11]) | Barnyardgrass plant response rating (barnyardgrass [2]; [12])
70: Plant response rating, Bluegrass (annual bluegrass; Preemergence, 31 g ai/ha)
20: Plant response rating, Black Mustard (mustard; 16 g ai/ha, preemergence) | Plant response rating, Foxtail, Green (green foxtail; 16 g ai/ha, preemergence) | Plant response rating, Bluegrass (annual bluegrass; 16 g ai/ha, preemergence)
75: Plant response rating, Barnyardgrass (barnyardgrass [1]; [4]) | Plant response rating, Itchgrass (itchgrass; Preemergence, 31 g ai/ha) | Plant response rating, Signalgrass (broadleaf signalgrass; Preemergence, 62 g ai/ha) | Field Bindweed plant response rating (field bindweed; 62 g ai/ha, Preemergence) | Field Bindweed plant response rating (field bindweed; 125 g ai/ha, preemergence) | Plant response rating, Field Bindweed (field bindweed; Preemergence, 31 g ai/ha)
0: Plant response rating, Black Mustard (mustard; Preemergence, 31 g ai/ha) | Plant response rating (0 to 100), Cocklebur (cocklebur; Postemergence, 31 g ai/ha) | Plant response rating, Cocklebur (cocklebur; [7]) | Plant response rating, Cocklebur (cocklebur; [8]) | Plant response rating, Cocklebur (cocklebur; [9]) | Plant response rating, Cocklebur (cocklebur; [14]) | Plant response rating (0 to 100), Kochia (kochia; Postemergence, 31 g ai/ha) | Plant response rating, Kochia (kochia; [7]) | Plant response rating, Kochia (kochia; [8]) | Plant response rating, Mallow (common mallow; 16 g ai/ha, preemergence) | Plant response rating, Dayflower (Virginia dayflower; 16 g ai/ha, preemergence) | Plant response rating, Dallisgrass (dallisgrass; 16 g ai/ha, preemergence) | Plant response rating (0 to 100), Velvetleaf (velvetleaf; Postemergence, 31 g ai/ha) | Plant response rating (0 to 100), Velvetleaf (velvetleaf; Postemergence, 62 g ai/ha) | Plant response rating, Field Bindweed (field bindweed; 16 g ai/ha, preemergence)
65: Plant response rating, Foxtail, Green (green foxtail; Preemergence, 31 g ai/ha)
50: Plant response rating, Itchgrass (itchgrass; 16 g ai/ha, preemergence)
98: Black Mustard plant response rating (mustard; 125 g ai/ha, preemergence) | Mallow plant response rating (common mallow; 62 g ai/ha, Preemergence) | Dallisgrass plant response rating (dallisgrass; 62 g ai/ha, Preemergence) | Dallisgrass plant response rating (dallisgrass; 125 g ai/ha, preemergence) | Itchgrass plant response rating (itchgrass; 125 g ai/ha, preemergence)
30: Plant response rating, Barnyardgrass (barnyardgrass [1]; 16 g ai/ha, preemergence, scale 0 to 100 (0 no effect, 100 complete control)) | Cocklebur plant response rating (cocklebur; [13])
100: Foxtail, Green plant response rating (green foxtail; 125 g ai/ha, preemergence) | Barnyardgrass plant response rating (barnyardgrass [1]; [3]) | Barnyardgrass plant response rating (barnyardgrass [1]; 125 g ai/ha, preemergence, scale 0 to 100) | Kochia plant response rating (kochia; [13]) | Kochia plant response rating (kochia; [15]) | Mallow plant response rating (common mallow; 125 g ai/ha, preemergence) | Velvetleaf plant response rating (velvetleaf; [13]) | Velvetleaf plant response rating (velvetleaf; [15]) | Plant response rating, Barnyardgrass (barnyardgrass [2]; Preemergence, 500 g ai/ha) | Bluegrass plant response rating (annual bluegrass; 125 g ai/ha, preemergence)
95: Signalgrass plant response rating (broadleaf signalgrass; 125 g ai/ha, preemergence)
